Among the data in patent US11453669B2, “Polycyclic pyridone derivative” (Shionogi & Co., Ltd., priority 2018, dated 2022) are EC50 values, retold here.

pEC50: −log10 of the molar value.

The test system of the first assay is HIV. In words: Anti-HIV activity (MT-4 cells, MTT). Type of assay: cell-based. The settings on record: Human immunodeficiency virus 1, MT4, 96 h, read-out: EC50_nM (50% HIV inhibitory concentration). The protocol: Serial dilutions of a test sample were prepared in a 96-well microplate (50 μL/well). 2.5×10^5 cells/mL of an MT-4 cell suspension was dispensed at 100 μL/well to the plate containing the test sample. Then, an HIV virus solution was dispensed at 50 μL/well. The plate was mixed with a plate mixer and cultured for 4 days in a CO2 incubator. An MTT (3-(4,5-dimethylthiazol-2-yl)-2,5-diphenyltetrazolium bromide) solution was dispensed at 30 μL/well. The plate was reacted for 1 hour in a CO2 incubator. 150 μL of the supernatant was removed from each well so as not to take up the cells. 150 μL of a cell lysis solution was added to each well and well mixed with a plate mixer until the cells were completely lysed. The absorbance of the mixed plate was measured at two wavelengths of 560 nm and 690 nm using a microplate reader.
On to `CN1C(=O)c2c(O)c(=O)c(-c3nnc(Cc4ccc(F)cc4F)s3)cn2N2CCOC[C@H]12` [II-009], for which the pEC50 is 8.89.

Staying with this assay, now noted: Human immunodeficiency virus 1, MT4, 96 h, read-out: EC50_nM (50% HIV inhibitory concentration); MT-4 cells, cultured 4 days, MTT.
For `CCN1C(=O)c2c(O)c(=O)c(-c3ncc(Cc4ccc(F)cc4F)s3)cn2N2CCCC[C@H]12` [Compound I-003], the pEC50 was 8.15.

Consider `CCN1C(=O)c2c(O)c(=O)c(-c3nnc(Cc4cccc(Cl)c4F)s3)cn2N2CCCC[C@H]12` [Compound I-005], for which the pEC50 was 8.49. Same read-out and setting: then `CCN1C(=O)c2c(O)c(=O)c(-c3nnc(Cc4cccc(Cl)c4F)s3)cn2N2CCCC[C@@H]12` [Compound I-006], with 8.57; and `CCN1C(=O)c2c(O)c(=O)c(-c3nnc(Cc4c(F)cc(F)cc4F)s3)cn2N2CCCC[C@H]12` [Compound I-007], with 8.66; and `CCN1C(=O)c2c(O)c(=O)c(-c3nnc(Cc4ccc(F)c(Cl)c4)s3)cn2N2CCCC[C@H]12` [Compound I-009], with 8.14. On the same count and under the same terms, under `CCN1C(=O)c2c(O)c(=O)c(-c3nnc(Cc4ccc(F)c(Cl)c4)s3)cn2N2CCCC[C@@H]12` [Compound I-010] stands 8.42; under `CCN1C(=O)c2c(O)c(=O)c(-c3nnc(Cc4cc(F)c(F)cc4F)s3)cn2N2CCCC[C@H]12` [Compound I-011], 8.30; under `CCN1C(=O)c2c(O)c(=O)c(-c3nnc(Cc4ccc(F)c(F)c4F)s3)cn2N2CCCC[C@H]12` [Compound I-013], 8.52. Still for that read-out and setting: then `CCN1C(=O)c2c(O)c(=O)c(-c3nnc(Cc4ccc(F)c(F)c4F)s3)cn2N2CCCC[C@@H]12` [Compound I-014], with 8.89; and `CN1C(=O)c2c(O)c(=O)c(-c3nnc(Cc4cccc(Cl)c4F)s3)cn2N2CCCC[C@H]12` [II-001], with 8.37. As for `CN1C(=O)c2c(O)c(=O)c(-c3nnc(Cc4cccc(Cl)c4F)s3)cn2N2CCCC[C@@H]12` [II-002], the pEC50 was 8.80. Still for that read-out and setting: under `CN1C(=O)c2c(O)c(=O)c(-c3nnc(Cc4c(F)cc(F)cc4F)s3)cn2N2CCCC[C@@H]12` [II-004] stands 9.15; under `CCN1C(=O)c2c(O)c(=O)c(-c3cnn(Cc4ccc(F)cc4F)c3)cn2N2CCCC[C@H]12` [II-005], 8.01. Still for that read-out and setting: under `CCN1C(=O)c2c(O)c(=O)c(-c3cnn(Cc4cccc(Cl)c4F)c3)cn2N2CCCC[C@H]12` [II-007] stands 7.85; under `CCN1C(=O)c2c(O)c(=O)c(-c3cnn(Cc4cccc(Cl)c4F)c3)cn2N2CCCC[C@@H]12` [II-008], 8.35; under `CN1C(=O)c2c(O)c(=O)c(-c3nnc(Cc4c(F)cc(F)cc4F)s3)cn2N2CCOC[C@H]12` [II-011], 9.30. On to `CN1C(=O)c2c(O)c(=O)c(-c3nnc(Cc4c(F)cc(F)cc4F)s3)cn2N2CCOC[C@@H]12` [II-012], for which the pEC50 was 9.60. Take `CCN1C(=O)c2c(O)c(=O)c(-c3cnn(Cc4ncc(Cl)cc4F)c3)cn2N2CCCC[C@H]12` [II-014]: the pEC50 is 7.21. On the same count and under the same terms, then `CCN1C(=O)c2c(O)c(=O)c(-c3nnc(Cc4ccc(F)cc4F)s3)cn2N2CCOC[C@H]12` [II-015], with 8.80. The same measure, in the same setting: then `CCN1C(=O)c2c(O)c(=O)c(-c3nnc(Cc4ccc(F)cc4F)s3)cn2N2CCOC[C@@H]12` [II-016], with 9.72.

`CCN1C(=O)c2c(O)c(=O)c(-c3nnc(Cc4c(F)cc(F)cc4F)s3)cn2N2CCOC[C@H]12` [II-017]: the pEC50 was 8.96.

In the case of `CCN1C(=O)c2c(O)c(=O)c(-c3nnc(Cc4ccc(F)cc4)s3)cn2N2CCOC[C@H]12` [II-019], the pEC50 is 8.68. In the case of `CCN1C(=O)c2c(O)c(=O)c(-c3nnc(Cc4ccc(F)cc4)s3)cn2N2CCOC[C@@H]12` [II-020], the pEC50 was 9.15. On the same count and under the same terms, then `CCN1C(=O)c2c(O)c(=O)c(-c3nnc(Cc4ccc(F)cc4F)s3)cn2N2C[C@@H](C)C[C@H]12` [II-021], with 8.59. Still for that read-out and setting: under `CCN1C(=O)c2c(O)c(=O)c(-c3nnc(Cc4ccc(F)cc4F)s3)cn2N2CC[C@H](C)[C@@H]12` [II-022] stands 9.17; under `CCN1C(=O)c2c(O)c(=O)c(-c3nnc(Cc4c(F)cc(F)cc4F)s3)cn2N2C[C@@H](C)C[C@H]12` [II-025], 9.05; under `CCN1C(=O)c2c(O)c(=O)c(-c3nnc(Cc4c(F)cc(F)cc4F)s3)cn2N2CC[C@H](C)[C@@H]12` [II-026], 9.41. Turning to `C[C@@H]1CC[C@@H]2N(C)C(=O)c3c(O)c(=O)c(-c4nnc(Cc5ccc(F)cc5F)s4)cn3N12` [II-028], the pEC50 was 9.89. The same measure, in the same setting: then `C[C@@H]1CC[C@@H]2N(C)C(=O)c3c(O)c(=O)c(-c4nnc(Cc5c(F)cc(F)cc5F)s4)cn3N12` [II-030], with 8.85; and `C[C@@H]1CC[C@H]2N(C)C(=O)c3c(O)c(=O)c(-c4nnc(Cc5c(F)cc(F)cc5F)s4)cn3N12` [II-031], with 9.89; and `C[C@H]1CCN2[C@@H](C1)N(C)C(=O)c1c(O)c(=O)c(-c3nnc(Cc4ccc(F)cc4F)s3)cn12` [II-032], with 9.89.

Take `C[C@@H]1CCN2[C@@H](C1)N(C)C(=O)c1c(O)c(=O)c(-c3nnc(Cc4ccc(F)cc4F)s3)cn12` [II-034]: the pEC50 was 9.89. On the same count and under the same terms, then `CN1C(=O)c2c(O)c(=O)c(-c3nnc(Cc4c(F)cc(F)cc4F)s3)cn2N2C[C@@H]3CC[C@@H](O3)[C@@H]12` [II-035], with 9.55. With `CN1C(=O)c2c(O)c(=O)c(-c3nnc(Cc4c(F)cc(F)cc4F)s3)cn2N2C[C@H]3CC[C@H](O3)[C@H]12` [II-036], the pEC50 is 8.70. In the case of `CN1C(=O)c2c(O)c(=O)c(-c3nnc(Cc4ccc(F)cc4F)s3)cn2N2Cc3ccccc3[C@H]12` [II-039], the pEC50 was 8.42.

Take `CN1C(=O)c2c(O)c(=O)c(-c3nnc(Cc4ccc(F)cc4F)s3)cn2N2Cc3ccccc3[C@@H]12` [II-040]: the pEC50 is 8.89. On the same count and under the same terms, then `C[C@H]1CC[C@H]2N(C)C(=O)c3c(O)c(=O)c(-c4nnc(Cc5c(F)cc(F)cc5F)s4)cn3N2C1` [II-042], with 9.70; and `CCN1C(=O)c2c(O)c(=O)c(-c3nnc(Cc4c(F)cc(F)cc4F)s3)cn2N2C[C@H]3CC[C@H](O3)[C@H]12` [II-045], with 8.70.

With `CCN1C(=O)c2c(O)c(=O)c(-c3nnc(Cc4ccc(F)cc4F)s3)cn2N2C[C@H]3CC[C@H](O3)[C@H]12` [II-047], the pEC50 was 8.85. Same read-out and setting: then `CCN1C(=O)c2c(O)c(=O)c(-c3nnc(Cc4ccc(F)cc4)s3)cn2N2C[C@H]3CC[C@H](O3)[C@H]12` [II-049], with 8.80. The same measure, in the same setting: under `CC(C)N1C(=O)c2c(O)c(=O)c(-c3nnc(Cc4c(F)cc(F)cc4F)s3)cn2N2C[C@H]3CC[C@H](O3)C12` (stereo partly drawn) [II-053] stands 8.89. On the same count and under the same terms, then `CC(C)N1C(=O)c2c(O)c(=O)c(-c3nnc(Cc4ccc(F)cc4F)s3)cn2N2CC[C@@H](C)C[C@@H]12` [II-059], with 9.00; and `CC(C)N1C(=O)c2c(O)c(=O)c(-c3nnc(Cc4c(F)cc(F)cc4F)s3)cn2N2CC[C@@H](C)C[C@@H]12` [II-060], with 8.57. For the molecule `CCN1C(=O)c2c(O)c(=O)c(-c3nnc(Cc4ccc(F)cc4F)s3)cn2N2[C@H](C)CCC[C@@H]12` [II-066], the pEC50 is 8.96.
